How the values were obtained:
[1] = system: RNA polymerase II (Pol II) loading; assay: Chromatin immunoprecipitation of Pol II, qPCR for TAR DNA; assay type: cell-based; conditions: U1; CBD 10 μM, Flavo 50 nM; 2-hour and 6-hour; FIG. 15C
Description: FIGS. 15A-15C are graphs and gels showing cannabidiols lower intracellular viral transcription and downstream viral products. U1 cells (1×10^6) were treated with a titration of CBD (1, 5, 10 μM) and THC (1, 5, 10 μg/mL) every day for 5 days. A) Intracellular RNA was isolated and analyzed through RT-qPCR for HIV-1 viral transcripts TAR and env. Each bar represents an average of three independent replicates. B) U1 cells (2×10^6) were treated with a titration of CBD (1, 5, 10 μM) every day for 5 days. Cells pellets were lysed, run through SDS-PAGE, and western blotted for (p-)/NF-κB, autophagosomal markers (p63, LC3), EV biogenesis marker VPS4, viral markers (gp120, Nef, p24), and Actin. C) U1 cells (5×10^6) were treated±CBD (10 μM) and Flavopiridol hydrochloride (50 nM; indicated as Flavo) and incubated for the following time points: 0 minutes, 2 hours and 6 hours. Cells were cross-linked with 1% formaldehyde solution and ChIP-ed for IgG and Pol II. ChIP DNA samples were analyzed via qPCR for TAR and env. Student's t-test was used for statistical analysis, where *p-value≤0.05; **p-value≤0.01, ***p-value≤0.001. […]
U1 monocytes were treated with CBD (10 μM) and Flavo (50 nM) for short periods (0, 2 and 6 hours) due to the fact that HIV-1 transcription activity is a rapid event that can be scored using chromatin immunoprecipitation (ChIP) assay for factor occupancy. […]

[2] = target: T1, cdk9/Cyclin Ti (Homo sapiens, UniProt P50750); assay: Kinase assay: cdk9 immunoprecipitate, phosphorylation of histone H1; assay type: biochemical; conditions: for phosphorylation of Histone H1: U1, CBD 1 μM, THC 1 μg/mL every day for 5 days, anti-cdk9 IP, FIG. 17 legend
T1 construct: Lysates were immunoprecipitated with 10 μg of cdk9 or IgG antibodies overnight at 4° C; endogenous in cells; host or cells: U1 cells treated with CBD or THC for 5 days, then lysed and immunoprecipitated with anti-cdk9
Description: U1 cells (5×10^6) were treated with CBD (1 μM) and THC (1 μg/mL) every day for 5 days. Cells were then lysed, centrifuged and the supernatants (˜150 ug) incubated with anti-cdk9 and IgG antibodies as described in the Kinase Assay section (Materials and Methods), ran on a 4-20% gel and dried, followed by imaging for phosphorylated Histone 1 (p-H1). p-H1 Densitometry counts were calculated on the kinase blot and normalized to background gel pieces.
U1 cells (5×10^6) were treated with CBD (1 μM) and THC 1 μg/mL) every day for 5 d. Cells were pelleted by centrifugation at 15,000×g for 5 minutes, washed with 1×PBS, and lysed in 250 μL lysis buffer. Lysates were immunoprecipitated with 10 μg of cdk9 or IgG antibodies overnight at 4° C., followed by a 2 h incubation with A/G beads at 4° C. IP complexes were washed with TNE50+0.1% NP40 buffer and kinase buffer as described in (Guendel et al., 2014, Novel Neuroprotective GSK-3β Inhibitor Restricts Tat-Mediated HIV-1 Replication. Journal of Virology, 88(2), 1189-1208), followed by 1 h incubation period at 37° C. with γ-^32P ATP and purified histone H1. The samples (50%) were loaded and run through SDS-PAGE on a 4-20% Tris-Glycine gel, followed by staining with Coomassie blue, destain with destain buffer (50% methanol and 10% acetic acid), and dried for 2 h. The dried gels were exposed to a PhosphorImager Cassette, followed by analysis via Molecular Dynamic's ImageQuant Software.
U1 monocytes were treated with CBD (10 μM) and Flavo (50 nM) for short periods (0, 2 and 6 hours) due to the fact that HIV-1 transcription activity is a rapid event that can be scored using chromatin immunoprecipitation (ChIP) assay for factor occupancy. Treated samples were lysed and incubated with IgG control and Pol II (serine 2/5) antibodies for ChIP, followed by qPCR analysis for TAR DNA. […] As expected, there was no change in amount of TAR DNA pulled down with PolII with any treatment compared to the untreated control at 0 hours samples (lanes 1-3).

T1 sequence (P50750 whole entry): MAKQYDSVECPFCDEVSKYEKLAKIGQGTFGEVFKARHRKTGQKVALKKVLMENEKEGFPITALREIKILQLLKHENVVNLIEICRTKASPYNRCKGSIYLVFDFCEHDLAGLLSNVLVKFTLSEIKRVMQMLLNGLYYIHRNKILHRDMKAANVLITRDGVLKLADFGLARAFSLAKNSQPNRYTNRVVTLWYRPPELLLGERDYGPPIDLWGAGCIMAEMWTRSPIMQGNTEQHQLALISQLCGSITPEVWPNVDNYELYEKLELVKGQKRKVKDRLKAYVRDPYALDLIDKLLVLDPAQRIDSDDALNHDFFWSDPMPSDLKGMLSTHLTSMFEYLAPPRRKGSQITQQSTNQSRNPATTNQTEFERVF
T1 sequence (O60563 whole entry partner): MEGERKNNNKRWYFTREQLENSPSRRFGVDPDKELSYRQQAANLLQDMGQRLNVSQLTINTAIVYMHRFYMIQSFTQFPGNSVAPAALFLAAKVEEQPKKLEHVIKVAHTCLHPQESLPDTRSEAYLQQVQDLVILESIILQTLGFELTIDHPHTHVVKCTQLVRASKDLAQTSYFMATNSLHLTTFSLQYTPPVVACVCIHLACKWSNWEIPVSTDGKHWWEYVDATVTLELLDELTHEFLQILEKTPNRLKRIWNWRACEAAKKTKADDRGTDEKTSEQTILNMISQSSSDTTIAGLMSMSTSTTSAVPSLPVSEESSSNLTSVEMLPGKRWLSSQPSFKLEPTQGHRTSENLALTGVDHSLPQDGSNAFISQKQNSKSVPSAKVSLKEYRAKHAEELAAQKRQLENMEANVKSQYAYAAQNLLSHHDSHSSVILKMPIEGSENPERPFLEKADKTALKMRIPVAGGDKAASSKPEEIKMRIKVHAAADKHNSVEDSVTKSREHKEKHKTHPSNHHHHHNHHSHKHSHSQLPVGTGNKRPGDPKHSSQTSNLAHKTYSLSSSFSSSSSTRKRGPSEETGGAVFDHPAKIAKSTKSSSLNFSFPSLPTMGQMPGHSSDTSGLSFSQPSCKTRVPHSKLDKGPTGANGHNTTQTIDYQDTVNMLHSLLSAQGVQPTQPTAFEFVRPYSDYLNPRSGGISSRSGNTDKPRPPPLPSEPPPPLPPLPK

## C=C(C)[C@@H]1CCC(C)=C[C@H]1c1c(O)cc(CCCCC)cc1O [CBD, 2-[1R-3-methyl-6R-(1-methylethenyl)-2-cyclohexen-1-yl]-5-pentyl-1,3-benzenediol]
[1]
  Pol II-associated TAR DNA versus untreated: statistically significant decreases
[2]; FIG. 17
  cdk9/Cyclin Ti activity in vitro: did not inhibit
[2]
  phosphorylation of Histone H1: lower phosphorylation of Histone H1

## CCCCCc1cc(O)c2c(c1)OC(C)(C)[C@@H]1CCC(C)=C[C@@H]21 [THC, Δ9-tetrahydrocannabinol]
[2]
  phosphorylation of Histone H1: lower phosphorylation of Histone H1

From patent US12208080B2, “Compositions and methods for modulation of extracellular vesicle release and treatment of neurological disorders” (GEORGE MASON RESEARCH FOUNDATION, INC., priority 2018, dated 2025)
